# In patent US6583154B1, “Compounds and methods which modulate feeding behavior and related diseases” (Amgen Inc., priority 1998, dated 2003):
row,melting point,Compound
1,241 to 243 °C,"Cc1nc(N2CCCCC2)c2[nH]c(-c3cccc(C(F)(F)F)c3)cc2n1.Cl (hydrate or solvate) [Example 107, 2-Methyl-4-piperidyl-6-[3-(trifluoromethyl)phenyl]pyrrolo[3,2-d]pyrimidine Hydrochloride Monohydrate]"
2,238 to 240 °C,"Cc1nc(N2CCCCC2)c2[nH]c(-c3cc(C)oc3C)cc2n1.Cl (hydrate or solvate) [Example 108, 2,5-Dimethyl-3-(2-methyl-4-piperidylpyrrolo[4,5-d]pyrimidin-6-yl)furan Hydrochloride Monohydrate]"
3,278 to 280 °C,"Cc1nc(N2CCCCC2)c2[nH]c(-c3ccc(C(F)(F)F)cc3)cc2n1.Cl (hydrate or solvate) [Example 111, 2-Methyl-4-piperidyl-6-[4-(trifluoromethyl)phenyl]pyrrolo[3,2-d]pyrimidine Hydrochloride Hydrate]"
4,> 280 °C,"Cc1nc(N2CCCCC2)c2[nH]c(-c3ccc4c(c3)OCO4)cc2n1.Cl (hydrate or solvate) [Example 114, 5-[2-Methyl-4-piperidylpyrrolo[4,5-d]pyrimidin-6-yl]-2H-benzo[d]1,3-dioxolane Hydrochloride Monohydrate]"
5,> 280 °C,"Cc1nc(N2CCCCC2)c2[nH]c(-c3cc(F)c(F)c(F)c3)cc2n1.Cl (hydrate or solvate) [Example 116, 2-Methyl-4-piperidyl-6-(3,4,5-trifluorophenyl)pyrrolo[3,2-d]pyrimidine Hydrochloride Hydrate]"
6,265 to 268 °C,"Cc1nc(N2CCCCC2)c2[nH]c(-c3ccc(Cl)c(Cl)c3)cc2n1.Cl (hydrate or solvate) [Example 118, 6-(3,4-Dichlorophenyl)-2-methyl-4-piperidylpyrrolo[3,2-d]pyrimidine Hydrochloride Monohydrate]"
7,262 to 264 °C,"COc1ccc(-c2cc3nc(C)nc(N4CCCCC4)c3[nH]2)cc1F.Cl (hydrate or solvate) [Example 119, 2-Fluoro-1-methoxy-4-[2-methyl-4-piperidylpyrrolo[4,5-d]pyrimidin-6-yl]benzene Hydrochloride Hydrate]"
8,243 to 245 °C,"Cc1nc(N2CCCCC2)c2[nH]c(-c3ccc(F)c(F)c3)cc2n1.Cl (hydrate or solvate) [Example 121, 6-(3,4-Difluorophenyl)-2-methyl-4-piperidylpyrrolo[3,2-d]pyrimidine Hydrochloride Hydrate]"
9,270 to 272 °C,"Cc1nc(N2CCCCC2)c2[nH]c(-c3ccc(SC(F)(F)F)cc3)cc2n1.Cl (hydrate or solvate) [Example 123, Trifluoro[4-(2-methyl-4-piperidylpyrrolo[4,5-d]pyrimidin-6-yl)phenylthio]methane Hydrochloride Monohydrate]"
10,198 to 201 °C,"Cc1nc(N2CCCCC2)c2[nH]c(-c3ccc(C)c(C)c3)cc2n1.Cl (hydrate or solvate) [Example 124, 6-(3,4-Dimethylphenyl)-2-methyl-4-piperidylpyrrolo[3,2-d]pyrimidine Hydrochloride Hydrate]"
11,> 280 °C,"Cc1nc(N2CCCCC2)c2[nH]c(-c3ccc4c(c3)OCCO4)cc2n1.Cl (hydrate or solvate) [Example 125, 6-(2-Methyl-4-piperidylpyrrolo[4,5-d]pyrimidin-6-yl)-2H,3H-benzo[e]1,4-dioxane Hydrochloride Monohydrate]"
12,268 to 270 °C,"COc1ccc(-c2cc3nc(C)nc(N4CCCCC4)c3[nH]2)cc1OC.Cl (hydrate or solvate) [Example 126, 1,2-Dimethoxy-4-(2-methyl-4-piperidylpyrrolo[4,5-d]pyrimidin-6-yl)benzene Hydrochloride Hydrate]"
13,> 280 °C,"Cc1nc(N2CCCCC2)c2[nH]c(-c3ccc4c(c3)Cc3ccccc3-4)cc2n1.Cl (hydrate or solvate) [Example 127, 6-Fluoren-2-yl-2-methyl-4-piperidylpyrrolo[3,2-d]pyrimidine Hydrochloride Hydrate]"
14,164 to 167 °C,"Cc1nc(N2CCCCC2)c2[nH]c(-c3ccc4c(c3)CCC4)cc2n1.Cl (hydrate or solvate) [Example 130, 6-Indan-5-yl-2-methyl-4-piperidylpyrrolo[3,2-d]pyrimidine Hydrochloride Monohydrate]"
15,170 to 172 °C,"Cc1nc(N2CCCCC2)c2[nH]c(-c3ccc4c(c3)CCO4)cc2n1.Cl (hydrate or solvate) [Example 131, 5-[2-Methyl-4-piperidylpyrrolo[4,5-d]pyrimidin-6-yl]-2,3-dihydrobenzo[b]furan Hydrochloride Hydrate]"
16,> 280 °C,"Cc1nc(N2CCCCC2)c2[nH]c(-c3ccc(F)cc3)c(C)c2n1.Cl (hydrate or solvate) [Example 134, 6-(4-Fluorophenyl)-2,7-dimethyl-4-piperidylpyrrolo[3,2-d]pyrimidine Hydrochloride Hydrate]"
17,> 280 °C,"Cc1nc(N2CCCCC2)c2[nH]c(-c3ccc(O)cc3)c(C)c2n1.Cl (hydrate or solvate) [Example 137, 4-[2,7-Dimethyl-4-piperidylpyrrolo[4,5-d]pyrimidin-6-yl]phenol Hydrochloride Hydrate]"
18,279 to 281 °C,"Cc1nc(N2CCCCC2)c2[nH]c(-c3ccc(S(C)(=O)=O)cc3)cc2n1.Cl (hydrate or solvate) [Example 142, 1-[2-Methyl-4-piperidylpyrrolo[4,5-d]pyrimidin-6-yl]-4-(methylsulfonyl)benzene Hydrochloride Monohydrate]"
19,> 280 °C,"Cc1nc(N2CCCCC2)c2[nH]c(-c3ccc4ccccc4c3)cc2n1.Cl (hydrate or solvate) [Example 160, 2-Methyl-6-(2-naphthyl)-4-piperidylpyrrolo[3,2-d]pyrimidine Hydrochloride Hydrate]"
20,236 to 238 °C,"Cc1nc(N2CCCCC2)c2[nH]c(CCc3ccccc3)cc2n1.Cl (hydrate or solvate) [Example 168, 2-Methyl-6-(2-phenylethyl)-4-piperidylpyrrolo[3,2-d]pyrimidine Hydrochloride Hydrate]"

# The remaining lines, values behind:
row,Compound,melting point
1,"CCc1nc(N2CCCCC2)c2[nH]c(-c3ccccc3)cc2n1.Cl (hydrate or solvate) [Example 68c, 2-Ethyl-6-phenyl-4-piperidylpyrrolo[3,2-d]pyrimidine Hydrochloride Monohydrate]",286 to 288 °C (dec.)
2,"Cc1nc(N2CCCCC2)c2[nH]c(-c3cccc(Cl)c3)cc2n1.Cl (hydrate or solvate) [Example 70e, 6-(3-Chlorophenyl)-2-methyl-4-piperidylpyrrolo[3,2-d]pyrimidine Hydrochloride Monohydrate]",244.5 to 246 °C (dec.)
3,"COc1ccc(-c2cc3nc(C)nc(N4CCCCC4)c3[nH]2)cc1.Cl (hydrate or solvate) [Example 71e, 4-Methoxy-1-(2-methyl-4-piperidylpyrrolo[4,5-d]pyrimidin-6-yl)benzene Hydrochloride Monohydrate]",267.5 to 268 °C (dec.)
4,"Cc1nc(N2CCCCC2)c2[nH]c(-c3ccc(O)cc3)cc2n1.Cl (hydrate or solvate) [Example 72, 2-methyl-4-piperidyl-6-(4-hydroxyphenyl)pyrrolo[3,2-d]pyrimidine]",> 300 °C (dec.)
5,"Cc1nc(N2CCCCC2)c2[nH]c(-c3ccccn3)cc2n1.Cl (hydrate or solvate) [Example 77, 2-Methyl-4-piperidyl-6-(2-pyridyl)pyrrolo[3,2-d]pyrimidine Hydrochloride Hydrate]",> 280 °C
6,"Cc1nc(N2CCCCC2)c2[nH]c(C3CCCCC3)cc2n1.Cl (hydrate or solvate) [Example 80d, 6-Cyclohexyl-2-methyl-4-piperidylpyrrolo[3,2-d]pyrimidine Hydrochloride Hydrate]",> 280 °C
7,"Cc1nc(N2CCCCC2)c2[nH]c(C34C[C@H]5C[C@@H](C3)C[C@@H](C4)C5)cc2n1.Cl (hydrate or solvate) [Example 81d, 6-Adamantanyl-2-methyl-4-piperidylpyrrolo[3,2-d]pyrimidine Hydrochloride Monohydrate]",> 280 °C
8,"Cc1nc(N2CCCCC2)c2[nH]c(-c3cc4ccccc4o3)cc2n1.Cl (hydrate or solvate) [Example 85, 2-(2-Methyl-4-piperidylpyrrolo[4,5-d]pyrimidin-6-yl)benzo[b]furan Hydrochloride Monohydrate]",> 280 °C
9,"Cc1nc(N2CCCCC2)c2[nH]c(-c3ccccc3)c(C)c2n1.Cl (hydrate or solvate) [Example 90, 2,7-Dimethyl-6-phenyl-4-piperidylpyrrolo[3,2-d]pyrimidine Hydrochloride Monohydrate]",> 280 °C
10,"Cc1nc(N2CCCCC2)c2[nH]c(C(C)(C)C)cc2n1.Cl (hydrate or solvate) [Example 97, 6-(tert-Butyl)-2-methyl-4-piperidylpyrrolo[3,2-d]pyrimidine Hydrochloride Hydrate]",256 to 258 °C
11,"Cc1nc(N2CCCCC2)c2[nH]c(-c3ccn(S(=O)(=O)c4ccccc4)c3)cc2n1.Cl (hydrate or solvate) [Example 101, 3-(2-Methyl-4-piperidylpyrrolo[4,5-d]pyrimidin-6-yl)-1-(phenylsulfonyl)pyrrole Hydrochloride Hydrate]",183 to 185.5 °C
12,"Cc1nc(N2CCCCC2)c2[nH]c(-c3ccccc3F)cc2n1.Cl (hydrate or solvate) [Example 102, 6-(2-Fluorophenyl)-2-methyl-4-piperidylpyrrolo[3,2-d]pyrimidine Hydrochloride Monohydrate]",287 to 289 °C
13,"Cc1nc(N2CCCCC2)c2[nH]c(-c3cccc(F)c3)cc2n1.Cl (hydrate or solvate) [Example 103, 6-(3-Fluorophenyl)-2-methyl-4-piperidylpyrrolo[3,2-d]pyrimidine Hydrochloride Monohydrate]",> 285 °C
14,"Cc1nc(N2CCCCC2)c2[nH]c(C)cc2n1.Cl (hydrate or solvate) [Example 104, 2,6-Dimethyl-4-piperidylpyrrolo[3,2-d]pyrimidine Hydrochloride Hydrate]",244 to 245.5 °C
